Data taken from patent publication US11878973B2, “Bicyclic compounds and their uses” (NOVARTIS AG, priority 2021, dated 2024).
Where two headings read alike, the source gives them in different places.

Tests used:
WRN helicase = WRN helicase (Homo sapiens (Human), UniProt Q14191); assay: In vitro enzymatic activity assay on WRN helicase (DNA dependent ATPase assay, ADP-Glo); type: biochemical; settings: geometric means of at least 2 determinations; read-out: WRN ATPase Activity (IC50)
In short: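 DNA-dependent ATPase activity was measured by ADP-Glo luminescent ADP detection after a 30-min room-temperature reaction. The reaction contained 10 nM WRN (residues N517-P1238), 0.2 nM FLAP26 and 300 µM ATP at pH 7.5 with 2 mM MgCl2. Compounds were tested as 10-point half-log series in duplicate; IC50 values are geometric means from at least two independent experiments.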

SW48 cells = assay: Proliferation assay SW48 (CellTiterGlo, 96 hours)
Procedure: (§1) The WRN-knockdown insensitive colon carcinoma cell line DLD-1 (RRID: CVCL_0248) was obtained from the Korean Cell Line Bank (KCLB), and used to generate a derivative in which the endogenous WRN gene copies were knocked out by CRISPR-mediated editing using standard CRISPR methods. The resulting cell line, DLD1-WRN—KO, was used to assess potential off-target compound effects.
(§2) All cells were maintained at 37° C. in a humidified 5% CO2 incubator.
(§3) For data analysis, the assay background signal that was determined in wells containing medium, but no cells, was subtracted from all other data points prior to further calculations. The extent of growth inhibition and potential cell kill was assessed by comparing the ATP levels (measured using CellTiterGlo, Promega) in compound-treated cells with those present at the time of compound addition. […] 100%, 0% and −100% signify absence of growth inhibition, growth stasis, and complete cell kill, respectively. Compound concentrations leading to half-maximal growth inhibition (G150) and residual cell viability at the highest tested compound concentration (Data (cmax), expressed in percent) were routinely calculated. Data analysis can also be carried out using commercially available software designed to derive IC50 values using 4-parameter fits (e.g. GraphPad Prism, XL fit). The reported GI50 values are the geometrical means of at least 2 independent replicates.

DLD1-WRN-KO cells = assay: Proliferation assay DLD1-WRN-KO (CellTiterGlo, 96 hours; off-target effects); settings: read-out: Proliferation Assay DLD1-WRN-KO (GI50)
Procedure: as §1, §2, §3

[1] = read-out: Proliferation Assay SW48 (GI50), SW48 cell line, geometric means of at least 2 determinations
[2] = DLD1-WRN-KO cell line, geometric means of at least 2 determinations
[3] = Homo sapiens, SW48, read-out: Proliferation Assay SW48 (GI50)

Sequence of WRN helicase (Q14191 517-1238): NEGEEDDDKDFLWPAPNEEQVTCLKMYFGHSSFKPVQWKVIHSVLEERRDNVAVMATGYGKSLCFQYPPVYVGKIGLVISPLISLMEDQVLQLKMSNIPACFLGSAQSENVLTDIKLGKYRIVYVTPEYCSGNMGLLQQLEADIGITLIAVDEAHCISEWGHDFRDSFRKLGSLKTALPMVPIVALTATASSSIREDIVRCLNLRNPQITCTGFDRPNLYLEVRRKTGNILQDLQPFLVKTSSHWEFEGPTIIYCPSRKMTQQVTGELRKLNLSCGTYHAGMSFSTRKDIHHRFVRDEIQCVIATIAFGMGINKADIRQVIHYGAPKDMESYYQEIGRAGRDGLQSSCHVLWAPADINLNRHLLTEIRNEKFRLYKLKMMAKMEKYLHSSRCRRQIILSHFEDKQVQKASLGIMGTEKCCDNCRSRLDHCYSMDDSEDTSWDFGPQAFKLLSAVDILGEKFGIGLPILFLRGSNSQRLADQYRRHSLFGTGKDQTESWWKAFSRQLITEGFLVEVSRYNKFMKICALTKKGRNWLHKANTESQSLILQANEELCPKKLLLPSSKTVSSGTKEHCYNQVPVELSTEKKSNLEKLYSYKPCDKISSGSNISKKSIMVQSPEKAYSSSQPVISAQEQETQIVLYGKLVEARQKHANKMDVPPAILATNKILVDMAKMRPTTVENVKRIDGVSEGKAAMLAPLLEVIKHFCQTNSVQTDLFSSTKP

SMILES	IC50 (WRN helicase) [nM]	GI50 (SW48 cells; [1]) [nM]	GI50 (DLD1-WRN-KO cells; [2]) [µM]	GI50 (SW48 cells; [3]) [nM]	GI50 (DLD1-WRN-KO cells; Homo sapiens) [µM]
CCc1c(N2CCN(C(=O)c3ncccc3O)CC2)c(=O)n2nc(C3=CC(=O)OCC3)nc2n1CC(=O)Nc1ccc(C(F)(F)F)cc1C [Example 60, 2-(5-ethyl-6-(4-(3-hydroxypicolinoyl)piperazin-1-yl)-7-oxo-2-(6-oxo-3,6-dihydro-2H-pyran-4-yl)-[1,2,4]triazolo[1,5-a]pyrimidin-4(7H)-yl)-N-(2-methyl-4-(trifluoromethyl)phenyl)acetamide]	240			880	> 10
CCc1c(N2CCN(C(=O)c3ncccc3O)CC2)c(=O)n2nc(N3CCC[C@@H](F)C3)nc2n1CC(=O)Nc1ccc(C(F)(F)F)cc1Cl (single isomer, unassigned) [Example 15a, ((R)—N-(2-chloro-4-(trifluoromethyl)phenyl)-2-(5-ethyl-2-(3-fluoropiperidin-1-yl)-6-(4-(3-hydroxypicolinoyl)piperazin-1-yl)-7-oxo-[1,2,4]triazolo[1,5-a]pyrimidin-4(7H)-yl)acetamide) or ((S)—N-(2-chloro-4-(trifluoromethyl)phenyl)-2-(5-ethyl-2-(3-fluoropiperidin-1-yl)-6-(4-(3-hydroxypicolinoyl)piperazin-1-yl)-7-oxo-[1,2,4]triazolo[1,5-a]pyrimidin-4(7H)-yl)acetamide)]	140	400	> 10		
CCc1c(N2CCN(C(=O)c3nccc(Cl)c3O)CC2)c(=O)n2nc(C3=CC[C@H](OC)CC3)nc2n1CC(=O)Nc1ccc(C(F)(F)F)nc1Cl (single isomer, unassigned) [Example 24b]	100	50	> 10		
CCc1c(N2CCN(C(=O)c3ncnc(C)c3O)CC2)c(=O)n2nc(C3=CCOCC3)nc2n1CC(=O)Nc1ccc(C(F)(F)F)nc1Cl [Example 47, N-(2-chloro-6-(trifluoromethyl)pyridin-3-yl)-2-(2-(3,6-dihydro-2H-pyran-4-yl)-5-ethyl-6-(4-(5-hydroxy-6-methylpyrimidine-4-carbonyl)piperazin-1-yl)-7-oxo-[1,2,4]triazolo[1,5-a]pyrimidin-4(7H)-yl)acetamide]	140			170	> 10
CCc1c(N2CCN(C(=O)c3ncccc3O)CC2)c(=O)n2nc(C3=CCN(CC(F)F)CC3)nc2n1CC(=O)Nc1ccc(C(F)(F)F)cc1C [Example 115, 2-(2-(1-(2,2-difluoroethyl)-1,2,3,6-tetrahydropyridin-4-yl)-5-ethyl-6-(4-(3-hydroxypicolinoyl)piperazin-1-yl)-7-oxo-[1,2,4]triazolo[1,5-a]pyrimidin-4(7H)-yl)-N-(2-methyl-4-(trifluoromethyl)phenyl)acetamide]	170			200	> 10
CCc1c(N2CCN(C(=O)c3ncccc3O)CC2)c(=O)n2nc(N3CCC[C@@H](F)C3)nc2n1CC(=O)Nc1ccc(C(F)(F)F)cc1Cl (single isomer, unassigned) [Example 15b, ((R)—N-(2-chloro-4-(trifluoromethyl)phenyl)-2-(5-ethyl-2-(3-fluoropiperidin-1-yl)-6-(4-(3-hydroxypicolinoyl)piperazin-1-yl)-7-oxo-[1,2,4]triazolo[1,5-a]pyrimidin-4(7H)-yl)acetamide) or ((S)—N-(2-chloro-4-(trifluoromethyl)phenyl)-2-(5-ethyl-2-(3-fluoropiperidin-1-yl)-6-(4-(3-hydroxypicolinoyl)piperazin-1-yl)-7-oxo-[1,2,4]triazolo[1,5-a]pyrimidin-4(7H)-yl)acetamide)]	120	360	> 10		
CCc1c(N2CCN(C(=O)c3ncnc(C)c3O)[C@@H]3CC[C@@H]32)c(=O)n2nc(C3=CCOCC3)nc2n1CC(=O)Nc1ccc(C(F)(F)F)cc1Cl (single isomer, unassigned) [Example 132]	890	490	> 10		
CCc1c(N2CCN(C(=O)c3ncccc3O)CC2)c(=O)n2nc(C3=CCCOC3)nc2n1CC(=O)Nc1ccc(C(F)(F)F)cc1C [Example 114, 2-(2-(5,6-dihydro-2H-pyran-3-yl)-5-ethyl-6-(4-(3-hydroxypicolinoyl)piperazin-1-yl)-7-oxo-[1,2,4]triazolo[1,5-a]pyrimidin-4(7H)-yl)-N-(2-methyl-4-(trifluoromethyl)phenyl)acetamide]	90			180	> 10

Other lines, results leading:

IC50 (WRN helicase) [nM]	GI50 (SW48 cells; [1]) [nM]	GI50 (DLD1-WRN-KO cells; [2]) [µM]	GI50 (SW48 cells; [3]) [nM]	GI50 (DLD1-WRN-KO cells; Homo sapiens) [µM]	SMILES
40	70	> 10			CCc1c(N2CCN(C(=O)c3ncccc3O)CC2)c(=O)n2nc(C3=CC[C@H](OC)CC3)nc2n1CC(=O)Nc1ccc(C(F)(F)F)cc1 (single isomer, unassigned) [Example 81a, ((R)-2-(5-ethyl-6-(4-(3-hydroxypicolinoyl)piperazin-1-yl)-2-(4-methoxycyclohex-1-en-1-yl)-7-oxo-[1,2,4]triazolo[1,5-a]pyrimidin-4(7H)-yl)-N-(4-(trifluoromethyl)phenyl)acetamide or ((S)-2-(5-ethyl-6-(4-(3-hydroxypicolinoyl)piperazin-1-yl)-2-(4-methoxycyclohex-1-en-1-yl)-7-oxo-[1,2,4]triazolo[1,5-a]pyrimidin-4(7H)-yl)-N-(4-(trifluoromethyl)phenyl)acetamide]
80			300	> 10	CCc1c(N2CCN(C(=O)c3nccc(Cl)c3O)CC2)c(=O)n2nc(C3=COCCO3)nc2n1CC(=O)Nc1ccc(C(F)(F)F)cc1C [Example 78, 2-(6-(4-(4-chloro-3-hydroxypicolinoyl)piperazin-1-yl)-2-(5,6-dihydro-1,4-dioxin-2-yl)-5-ethyl-7-oxo-[1,2,4]triazolo[1,5-a]pyrimidin-4(7H)-yl)-N-(2-methyl-4-(trifluoromethyl)phenyl)acetamide]
50			50	> 10	CCc1c(N2CCN(C(=O)c3nc(C)cc(F)c3O)CC2)c(=O)n2nc(C3=CCOCC3)nc2n1CC(=O)Nc1ccc(C(F)(F)F)cc1C [Example 62, 2-(2-(3,6-dihydro-2H-pyran-4-yl)-5-ethyl-6-(4-(4-fluoro-3-hydroxy-6-methylpicolinoyl)piperazin-1-yl)-7-oxo-[1,2,4]triazolo[1,5-a]pyrimidin-4(7H)-yl)-N-(2-methyl-4-(trifluoromethyl)phenyl)acetamide]
30			160	5.2	CCc1c(N2CCN(C(=O)c3ncccc3O)CC2)c(=O)n2nc(N3CCCC(F)C3)nc2n1CC(=O)Nc1cc(Cl)c(C(F)(F)F)cc1C (racemic) [Example 13, rac-N-(5-chloro-2-methyl-4-(trifluoromethyl)phenyl)-2-(5-ethyl-2-(3-fluoropiperidin-1-yl)-6-(4-(3-hydroxypicolinoyl)piperazin-1-yl)-7-oxo-[1,2,4]triazolo[1,5-a]pyrimidin-4(7H)-yl)acetamide]
80			210	> 10	CCc1c(N2CCN(C(=O)c3ncccc3O)CC2)c(=O)n2nc(N3CCOCC3)nc2n1CC(=O)Nc1ccc(C(F)(F)F)cc1C [Example 8, 2-(5-ethyl-6-(4-(3-hydroxypicolinoyl)piperazin-1-yl)-2-morpholino-7-oxo-[1,2,4]triazolo[1,5-a]pyrimidin-4(7H)-yl)-N-(2-methyl-4-(trifluoromethyl)phenyl)acetamide]
80			70	> 10	CCc1c(N2CCN(C(=O)c3ncc(C)c(F)c3O)CC2)c(=O)n2nc(C3=CCOCC3)nc2n1CC(=O)Nc1ccc(C(F)(F)F)cc1Cl [Example 97, N-(2-chloro-4-(trifluoromethyl)phenyl)-2-(2-(3,6-dihydro-2H-pyran-4-yl)-5-ethyl-6-(4-(4-fluoro-3-hydroxy-5-methylpicolinoyl)piperazin-1-yl)-7-oxo-[1,2,4]triazolo[1,5-a]pyrimidin-4(7H)-yl)acetamide]
90			50	> 10	CCc1c(N2CCN(C(=O)c3ncccc3O)CC2)c(=O)n2nc(C3=CCCCO3)nc2n1CC(=O)Nc1ccc(C(F)(F)F)nc1Cl [Example 29, N-(2-chloro-6-(trifluoromethyl)pyridin-3-yl)-2-(2-(3,4-dihydro-2H-pyran-6-yl)-5-ethyl-6-(4-(3-hydroxypicolinoyl)piperazin-1-yl)-7-oxo-[1,2,4]triazolo[1,5-a]pyrimidin-4(7H)-yl)acetamide]
70			270	> 10	CCc1c(N2CCN(C(=O)c3nccc(Cl)c3O)CC2)c(=O)n2nc(N3CCOCC3)nc2n1CC(=O)Nc1cc(F)c(C(F)(F)F)cc1C [Example 6, 2-(6-(4-(4-chloro-3-hydroxypicolinoyl)piperazin-1-yl)-5-ethyl-2-morpholino-7-oxo-[1,2,4]triazolo[1,5-a]pyrimidin-4(7H)-yl)-N-(5-fluoro-2-methyl-4-(trifluoromethyl)phenyl)acetamide]
50			50	> 10	CCc1c(N2CCN(C(=O)c3nccc(Cl)c3O)CC2)c(=O)n2nc(C3=CCOCC3)nc2n1CC(=O)Nc1ccc(C(F)(F)F)cc1C [Example 61, 2-(6-(4-(4-chloro-3-hydroxypicolinoyl)piperazin-1-yl)-2-(3,6-dihydro-2H-pyran-4-yl)-5-ethyl-7-oxo-[1,2,4]triazolo[1,5-a]pyrimidin-4(7H)-yl)-N-(2-methyl-4-(trifluoromethyl)phenyl)acetamide]
